This is an account of results in US4357344A, “Polybutylbenzylphenols and benzyl-3,4-methylenedioxybenzenes in insect population control” (The United States of America as represented by the …, priority 1979, dated 1982).

Common to all, as to format: in vivo
The test system of data set [1] is flies (family Muscidae). Put plainly: Anti-procreant comparison tests (sexual sterility or oviposition inhibition). As to conditions: for inducing sexual sterility or inhibiting oviposition: comparison tests, Examples 6-9; for activity in the method of the invention (ineffective compounds): general statement of the description. The procedure:
(§1) The compound to be tested was administered in a standard fly food containing 6 parts of sugar, 6 parts of powdered non-fat dry milk, and 1 part of powdered egg yolk. Treated food was prepared by mixing an appropriate amount of a solution or suspension of CBCP in acetone with a batch of the food. The acetone was evaporated (4-6 hours) and the dry material was repulverized.
Oviposition inhibition tests: Samples of treated food with a container of water were placed in cages containing 100 newly-emerged adult flies (family Muscidae). After the flies had been exposed to the treated diet for 6-7 days, 1/2 inch of moist standard fly larva-rearing medium (CSMA) in souffle cups was placed in the cages for oviposition. After 4-6 hours, the cup was removed and examined for eggs. If no eggs were laid, the medium was offered again at intervals of 1 or 2 days until it had been offered three times or the flies had oviposited.
(§2) Chemosterilancy tests: If eggs were laid in the above tests, the cups were filled with water and stirred to break up the egg masses. A random sample of 100 eggs from each cup was collected and placed on a small piece of black cloth which was then laid on top of moist larva-rearing medium in a rearing container. Observations were made to determine percentage of egg hatch and pupal development.
These flies were maintained on untreated fly food. After 5 days, cups containing the larval-rearing medium was provided as previously described and a 100-egg sample was collected and place on moist larve-rearing medium. About a week after oviposition, examination was made to determine the percentage of hatched eggs and of pupae developed.
For purpose of comparison the above-described tests were applied to 2-benzyl-4-t-butylphenol and 2-(α-methylbenzyl)-4-t-butylphenol.
For purposes of comparison the above-described tests were applied to 2,6-di-t-butyl-4-(4-methoxybenzyl) phenol and 2,6-di-t-butyl-4-(α-methyl-4-methoxybenzyl)phenol, both compounds being ineffective in inducing sexual sterility or in inhibiting oviposition.
For purposes of comparison the following compounds were tested and found to be ineffective in inducing sexual sterility or in inhibiting oviposition: 2-(4-methoxybenzyl)-3,4-methylenedioxyphenol, (α-methylbenzyl)-3,4-methylenedioxy-6-methoxybenzene, (α,α-dimethylbenzyl)-3,4-methylenedioxy-6-methoxybenzene, (α,α-dimethylbenzyl)-3,4-methylenedioxy-6-ethoxybenzene, (α,α-dimethylbenzyl)-3,4-methylenedioxy-6-n-propoxybenzene, (α,α-dimethylbenzyl)-3,4-methylenedioxy-6-n-butoxybenzene, (α,α-dimethylbenzyl)-3,4-methylenedioxy-6-n-pentoxybenzene, (α-vinylbenzyl)-3,4-methylenedioxy-6-methoxybenzene, (α-vinylbenzyl)-3,4-methylenedioxy-6-ethoxybenzene, (α-vinylbenzyl)-3,4-methylenedioxy-6-n-propoxybenzene.

In data set [2] the test system is flies (family Muscidae). Put plainly: Oviposition inhibition tests (treated fly food; Examples 6-9). The procedure: The compound to be tested was administered in a standard fly food containing 6 parts of sugar, 6 parts of powdered non-fat dry milk, and 1 part of powdered egg yolk. Treated food was prepared by mixing an appropriate amount of a solution or suspension of CBCP in acetone with a batch of the food. The acetone was evaporated (4-6 hours) and the dry material was repulverized. Oviposition inhibition tests: Samples of treated food with a container of water were placed in cages containing 100 newly-emerged adult flies (family Muscidae). After the flies had been exposed to the treated diet for 6-7 days, 1/2 inch of moist standard fly larva-rearing medium (CSMA) in souffle cups was placed in the cages for oviposition. After 4-6 hours, the cup was removed and examined for eggs. […] The procedure outlined in Example 6 was followed using a Group II compound. The procedure outlined in Example 6 was followed using Group III compounds. The results are summarized below: The procedure outlined in Example 6 was followed substituting a Group IV compound for those of Group I. The table below provides a summary of results.

Data set [3] has as its system flies (family Muscidae). Put plainly: Chemosterilancy tests (egg hatch and pupal development; Examples 6-9). The procedure: as §1, §2
The procedure outlined in Example 6 was followed using a Group II compound.
The procedure outlined in Example 6 was followed using Group III compounds. The results are summarized below:
The procedure outlined in Example 6 was followed substituting a Group IV compound for those of Group I. The table below provides a summary of results.

Data set [4] relates to early fourth-stage larvae of the common malaria mosquito (Anopheles quadrimaculatus). Put plainly: Growth-inhibition tests on mosquito larvae. Particulars: in water; corrected by Abbott's formula. The procedure: The compound to be tested was added to one liter of water until the final concentration thereof was a growth-inhibiting amount. Fifty early fourth-stage larvae of the common malaria mosquito (Anopheles quadrimaculatus) were placed on this water. Larval food was administered daily. Dead larvae and pupae were removed, counted, and discarded daily. Live pupae were removed, rinsed, and transferred to a cup of distilled water. The cup was placed in an emergence cage, and the emerging adults, if any, were maintained on a sugar-water diet.
The effectiveness of the compound in inhibiting growth was determined by adding the number of dead larvae and pupae and the number of adults that were dead, unable to complete eclosion, and malformed. This sum was corrected by Abbott's formula (to adjust for the number of larvae or pupae which would die naturally) and designated as the GI (growth inhibition). The results are expressed as GI-90, i.e., the concentration of growth inhibitor in ppm that would prevent and/or retard growth in 90% of the treated larvae.

As to `CC(c1ccccc1)c1cc(C(C)(C)C)ccc1O` (stereo not drawn) [2-(α-methylbenzyl)-4-t-butylphenol, reference compound], in the data set with flies (family Muscidae) [1], the “inducing sexual sterility or inhibiting oviposition” value is given as “ineffective” and the “activity in the method of the invention (ineffective compounds)” value (shortened to “activity in the method of the invention”) is reported as “ineffective”.
Turning to “(α,α-Dimethylbenzyl)-3,4-methylenedioxy-6-methoxybenzene”, the “inducing sexual sterility or inhibiting oviposition” value in the data set on flies (family Muscidae) [1] is “ineffective”.
For `CC(C)(C)c1cc(C(C)(C)c2ccccc2)cc(C(C)(C)C)c1O` [4-(α,α-dimethylbenzyl)-2,6-di-t-butylphenol, reference compound], in the data set with flies (family Muscidae) [1], the “activity in the method of the invention” value is listed as “ineffective”.
The same measure, in the same setting: the entry for `COc1ccc(Cc2cc3c(cc2O)OCO3)cc1` [6-(4-methoxybenzyl)-3,4-methylenedioxyphenol, reference compound] is “ineffective”.
Turning to `CC(C)(C)c1ccc(O)c(Cc2ccccc2)c1` [2-benzyl-4-t-butylphenol, reference compound], in the data set on flies (family Muscidae) [1], the “inducing sexual sterility or inhibiting oviposition” value is “ineffective” and the “activity in the method of the invention” value is on record as “ineffective”.
As to `COc1cc2c(cc1C(C)c1ccccc1)OCO2` (stereo not drawn) [Compound T, (α-Methylbenzyl)-3,4-methylenedioxy-6-methoxybenzene], the “Mortality, parent generation” value was found to be 60% in the data set with flies (family Muscidae) [2] (0.25% in food) and 42% with flies (family Muscidae) [2] (0.5% in food). In addition, the Egg hatch in the data set on flies (family Muscidae) [3] (0.25% in food) came out at 56%; with flies (family Muscidae) [3] (0.5% in food) it was 0%. Besides, the Pupal development stood at 56% in the data set on flies (family Muscidae) [3] (0.25% in food) and 0% in the data set with flies (family Muscidae) [3] (0.5% in food). For the same compound, the “GI-90 (concentration of growth inhibitor that would prevent and/or retard growth in 90% of the treated larvae)” value in data set [4] amounted to 0.6 ppm.
As to `CCCCOc1cc2c(cc1C(C)(C)c1ccccc1)OCO2` [AA, (α, 60 -Dimethylbenzyl)-3,4-methylenedioxy-6-n-butoxybenzene], in the data set on flies (family Muscidae) [1], the “inducing sexual sterility or inhibiting oviposition” value was “ineffective”.
In the case of `COc1ccc(Cc2cc(C(C)(C)C)c(O)c(C(C)(C)C)c2)cc1` [F, 2,6-Di-t-butyl-4-(4-methoxybenzyl)phenol], in the data set with flies (family Muscidae) [1], the “inducing sexual sterility or inhibiting oviposition” value is “ineffective” and the “activity in the method of the invention” value is on record as “ineffective”. In addition, the “GI-90 (concentration of growth inhibitor that would prevent and/or retard growth in 90% of the treated larvae)” value in data set [4] turned out to be 0.042 ppm.
Take `CCCOc1cc2c(cc1C(C)c1ccccc1)OCO2` (stereo not drawn) [U, (α-Methylbenzyl)-3,4-methylenedioxy-6-n-propoxybenzene]: the “Mortality, parent generation” value in the data set with flies (family Muscidae) [2] (0.025% in food), in the data set with flies (family Muscidae) [2] (0.05% in food), in the data set on flies (family Muscidae) [2] (0.1% in food), in the data set with flies (family Muscidae) [2] (0.25% in food), in the data set with flies (family Muscidae) [2] (0.5% in food) and in the data set with flies (family Muscidae) [2] (1.0% in food) was 0% throughout. Moreover, the Egg hatch with flies (family Muscidae) [3] (0.025% in food) is on record as 42%; in the data set with flies (family Muscidae) [3] (0.05% in food) it was 0%; with flies (family Muscidae) [3] (0.1% in food), 0%; with flies (family Muscidae) [3] (0.25% in food), 0%; in the data set with flies (family Muscidae) [3] (0.5% in food), 0%; in the data set on flies (family Muscidae) [3] (1.0% in food), 0%. Further, the Pupal development in the data set on flies (family Muscidae) [3] (0.025% in food) came to 42%; in the data set with flies (family Muscidae) [3] (0.05% in food) it was 0%; in the data set with flies (family Muscidae) [3] (0.1% in food), 0%; in the data set with flies (family Muscidae) [3] (0.25% in food), 0%; in the data set on flies (family Muscidae) [3] (0.5% in food), 0%; in the data set with flies (family Muscidae) [3] (1.0% in food), 0%. For the same compound, in data set [4], the “GI-90 (concentration of growth inhibitor that would prevent and/or retard growth in 90% of the treated larvae)” value is listed as 0.3 ppm.
Turning to `COc1c(C)cc(Cc2ccc3c(c2)OCO3)cc1C` [JJ, (3,5-Dimethyl-4-methoxybenzyl)-3,4-methylenedioxybenzene], the “Mortality, parent generation” value with flies (family Muscidae) [2] (0.05% in food) is listed as 0%; in the data set with flies (family Muscidae) [2] (0.1% in food), 0%; with flies (family Muscidae) [2] (0.25% in food), 0%; in the data set with flies (family Muscidae) [2] (0.5% in food), 70%. In addition, the figures for the Egg hatch with flies (family Muscidae) [3] (0.05% in food), with flies (family Muscidae) [3] (0.1% in food) and in the data set on flies (family Muscidae) [3] (0.25% in food) were 70%, 6% and 0%, respectively. Also, the results for the Pupal development in the data set with flies (family Muscidae) [3] (0.05% in food), in the data set with flies (family Muscidae) [3] (0.1% in food) and with flies (family Muscidae) [3] (0.25% in food) were 70%, 6% and 0%, respectively. In data set [4], the “GI-90 (concentration of growth inhibitor that would prevent and/or retard growth in 90% of the treated larvae)” value is 0.6 ppm.
Regarding “(α-Vinylbenzyl)-3,4-methylenedioxy-6-n-propoxybenzene [GG]”, in the data set with flies (family Muscidae) [1], the “inducing sexual sterility or inhibiting oviposition” value is “ineffective”.
On to `CC(c1ccccc1)c1cc(C(C)(C)C)c(O)c(C(C)(C)C)c1` (stereo not drawn) [E, 2,6-Di-t-butyl-4-(α-methylbenzyl)phenol], for which the “Mortality, parent generation” value in the data set with flies (family Muscidae) [2] (0.1% in food), in the data set on flies (family Muscidae) [2] (0.25% in food), in the data set with flies (family Muscidae) [2] (0.5% in food) and in the data set with flies (family Muscidae) [2] (1.0% in food) was 0% in each case. Also, in the data set with flies (family Muscidae) [2] (1.0% in food), the Oviposition result is reported as “Normal”. The Egg hatch in the data set with flies (family Muscidae) [3] (0.1% in food) turned out to be 36%; in the data set with flies (family Muscidae) [3] (0.25% in food), 0%; in the data set on flies (family Muscidae) [3] (0.5% in food) it was 0%; in the data set with flies (family Muscidae) [3] (1.0% in food), 0%. Further, the Pupal development amounted to 36% in the data set with flies (family Muscidae) [3] (0.1% in food), 0% with flies (family Muscidae) [3] (0.25% in food), 0% in the data set on flies (family Muscidae) [3] (0.5% in food) and 0% in the data set on flies (family Muscidae) [3] (1.0% in food). Besides, the “GI-90 (concentration of growth inhibitor that would prevent and/or retard growth in 90% of the treated larvae)” value in data set [4] was 0.072 ppm.
For `COc1ccc(C(C)c2cc(C(C)(C)C)c(O)c(C(C)(C)C)c2)cc1` (stereo not drawn) [Compound G, 2,6-Di-t-butyl-4-(α-methyl-4-methoxybenzyl)phenol], in the data set on flies (family Muscidae) [1], the “inducing sexual sterility or inhibiting oviposition” value was “ineffective” and the “activity in the method of the invention” value is reported as “ineffective”.
As to “2-(4-methoxybenzyl)-3,4-methylenedioxyphenol [reference compound]”, the “inducing sexual sterility or inhibiting oviposition” value in the data set on flies (family Muscidae) [1] was “ineffective”.
`CCCCOc1cc2c(cc1Cc1ccc(OC)cc1)OCO2` [P, (4-Methoxybenzyl)-3,4-methylenedioxy-6-n-butoxybenzene]: the “Mortality, parent generation” value with flies (family Muscidae) [2] (0.05% in food), with flies (family Muscidae) [2] (0.1% in food), in the data set with flies (family Muscidae) [2] (0.25% in food) and with flies (family Muscidae) [2] (0.5% in food) was 0% each time. The Egg hatch came out at 36% with flies (family Muscidae) [3] (0.05% in food), 10% in the data set on flies (family Muscidae) [3] (0.1% in food), 0% in the data set on flies (family Muscidae) [3] (0.25% in food) and 0% with flies (family Muscidae) [3] (0.5% in food). The Pupal development in the data set with flies (family Muscidae) [3] (0.05% in food) came to 36%; in the data set on flies (family Muscidae) [3] (0.1% in food), 10%; with flies (family Muscidae) [3] (0.25% in food) it was 0%; with flies (family Muscidae) [3] (0.5% in food), 0%. Moreover, the “GI-90 (concentration of growth inhibitor that would prevent and/or retard growth in 90% of the treated larvae)” value in data set [4] is given as 0.047 ppm.
